Laboratory results reported in patent US5582986A, “Antisense oligonucleotide inhibition of the ras gene” (Isis Pharmaceuticals, Inc., priority 1994, dated 1996).

Tests used:
[1] = tested on: normal (wild-type) H-ras-luciferase reporter gene in HeLa cells; test: ras-luciferase reporter gene expression, normal (wild-type) form, transient transfection; type: cell-based, human; conditions: dose-response, luciferase activity as % of untreated transfected cells, read-out: IC50, inhibition of ras-luciferase activity, normal form
[2] = tested on: mutant (activated, codon-12) H-ras-luciferase reporter gene in HeLa cells; test: ras-luciferase reporter gene expression, mutant (codon-12, activated) form, transient transfection; type: cell-based, human

Q: Which results are given for “2570: phosphorothioate 17-mer CCA-CAC-CGA-CGG-CGC-CC, targeted to the codon-12 point mutation of activated H-ras RNA (antisense CCACACCGACGGCGCCC; all phosphorothioate, sugars by position and methylation of C not given here) [Oligo 2570]”?
A: IC50 [1]: ~0.25 µM; selectivity toward the mutant form of ras-luciferase as compared to the normal form ([2]; at low concentrations, dose-response (FIG. 2)): approximately threefold; IC50 ([2]; dose-response, HeLa cells, luciferase activity as % of untreated transfected cells, read-out: IC50, inhibition of ras-luciferase activity, mutant form): ~0.1 µM; inhibition of mutant ras-luciferase relative to wild-type ([2]; single dose 100 nM, HeLa cells, cationic lipid (FIG. 6)): four-fold; selectivity toward the mutated form of ras-luciferase as compared to the normal form (in words) ([2]; single dose 0.5 μM (FIG. 3, FIG. 4)): displayed selectivity toward the mutated form
